Article PMC4120060 (Psychoneuroendocrinology, 2014)

How the values were obtained:
[1] = in vivo; cited from earlier work
[2] = Lumbar CSF OT concentration after OT administration; settings: N=6
[3] = humans; four-fold lower intramuscular dose; ref Landgraf, 1985; cited from earlier work
[4] = Plasma OT concentration after OT administration; format: in vivo, rhesus monkeys (Macaca mulatta)
[5] = in vivo; cited from earlier work; remark: listed apart in the source
[6] = ref Mens et al., 1983; cited from earlier work

lumbar CSF OT after IV-OT ([2]; IV 48 IU Syntocinon vs placebo, 0, 60, 120 min) | lumbar CSF OT after IN-OT ([2]; intranasal spray 24 IU Syntocinon vs placebo, 0, 60, 120 min) | increase in plasma OT after IV-OT, 15 min ([4]; IV bolus 48 IU Syntocinon, 15 min after administration, N=6, RIA) | increase in plasma OT after IV-OT, 60 min ([4]; IV bolus 48 IU Syntocinon, 60 min after administration, N=6, RIA) | plasma OT above baseline after IV-OT, 120 min ([4]; IV bolus 48 IU Syntocinon, 120 min after administration, N=6, RIA) | increase in plasma OT over baseline after IN-OT ([4]; intranasal spray 24 IU Syntocinon, 60 and 120 min, N=6, RIA) | Compound | CSF concentration of the peptide after nasal delivery [1] | plasma OT concentration, intramuscular relative to nasal administration [3] | plasma OT after IN-OT versus placebo ([4]; intranasal spray 24 IU Syntocinon vs placebo, 60 and 120 min, N=6) | CSF OT concentrations after IN-OT spray versus placebo/saline [1] | passive diffusion of peptide from the plasma to the CSF [5] | half-life of OT in the blood [6]
 |  |  |  |  |  | α-melanocyte stimulating hormone | increased concentrations in cerebrospinal fluid (CSF) over baseline levels |  |  |  |  | 
no impact on lumbar CSF concentrations | No significant effect | thousand fold increase | hundred fold increase | 100 times | 100 fold | CC[C@H](C)[C@@H]1NC(=O)[C@H](Cc2ccc(O)cc2)NC(=O)[C@@H](N)CSSC[C@@H](C(=O)N2CCC[C@H]2C(=O)N[C@@H](CC(C)C)C(=O)NCC(N)=O)NC(=O)[C@H](CC(N)=O)NC(=O)[C@H](CCC(N)=O)NC1=O [OT, oxytocin] |  | 10 fold | significantly increased plasma levels of OT | higher | ~ 1% | approximately 2 minutes
